Source: patent US20060122181A1, “Heteroaromatic pentacyclic compound and medicinal use thereof” (Japan Tobacco Inc., priority 2003, published 2006)
Structures can show the parent of a compound that is named as a salt.

What was measured:
male SD rats = test: Effect of concomitant use with insulin on hypoglycemic activity; type: in vivo; conditions: 1 hour after vs before insulin
Experimental: For drawing blood, the animals were fasted after insulin administration. The blood thus taken was centrifuged and the glucose level was measured from the obtained plasma by the hexokinase method (glucose measurement kit). For evaluation, the percentage (%) of decrease in the glucose level of the test compound and insulin concomitant use group and insulin administration group one hour later relative to before insulin administration is shown.

female ob/ob mice [1] = test: Effect of concomitant use with glibenclamide on hypoglycemic activity; type: in vivo; conditions: relative to control
Experimental: (§1) To 10-week-old female ob/ob mice grouped according to glucose level were orally administered a 0.5% methyl cellulose suspension of the test compound {note: Example 4-2 (1 mg/kg)} (test compound-administered group), a 0.5% methyl cellulose suspension of glibenclamide (3 mg/kg) (glibenclamide-administered group), simultaneously both a 0.5% methyl cellulose suspension of the test compound and a 0.5% methyl cellulose suspension (glibenclamide 3 mg/kg) (test compound and glibenclamide concomitant use group), or a 0.5% methyl cellulose solution alone (control group).
Blood was drawn under fasting condition, which condition was started simultaneously with the administration by means of removing the feed. […] The blood thus taken was centrifuged and the glucose level was measured from the obtained plasma by the hexokinase method (glucose kit). For evaluation, the percentage (%) of decrease in the glucose level of each group other than the control group relative to the control group is shown.

male db/db mice [2] = test: Effect of concomitant use with nateglinide on hypoglycemic activity; type: in vivo; conditions: relative to control
Experimental: as §1, with “male db/db” for “female ob/ob”, “4-5 (5” for “4-2 (1”, “nateglinide (30” for “glibenclamide (3”, “(nateglinide-administered” for “(glibenclamide-administered”, “(nateglinide 30” for “(glibenclamide 3”, “nateglinide” for “glibenclamide”
(§2) Blood was drawn under fasting condition, which condition was started simultaneously with the administration by means of removing the feed. The blood was drawn under anesthesia from the orbital vein 2 hours after the administration. The blood thus taken was centrifuged and the glucose level was measured from the obtained plasma by the hexokinase method (glucose measurement kit). For evaluation, the percentage (%) of decrease in the glucose level of each group other than the control group relative to the control group is shown.

female ob/ob mice [3] = test: Effect of concomitant use with metformin hydrochloride on hypoglycemic activity; type: in vivo; conditions: relative to control
Experimental: as §1, with “metformin chloride (30” for “glibenclamide (3”, “(metformin-administered” for “(glibenclamide-administered”, “(metformin chloride 30” for “(glibenclamide 3”, “metformin” for “glibenclamide”, “group). The ob/ob mice were fasted for 3 hours before administration.” for “group).”
as §2, with “3 and 5” for “2”, “(glucose” for “(glucose measurement”

male db/db mice [4] = test: Effect of concomitant use with pioglitazone hydrochloride on hypoglycemic activity; type: in vivo; conditions: relative to control; for blood glucose decreasing rate (%) Day 3: 3 hours after administration
Experimental: To 8-week-old male db/db mice grouped according to full feed glucose level were orally administered a 0.5% methyl cellulose suspension of the test compound {note: Example 4-5 (10 mg/kg)} (test compound-administered group), a 0.5% methyl cellulose suspension of Pioglitazone hydrochloride (3 mg/kg) (Pioglitazone-administered group), simultaneously both a 0.5% methyl cellulose suspension of the test compound and a 0.5% methyl cellulose suspension (Pioglitazone hydrochloride 3 mg/kg) (test compound and Pioglitazone concomitant use group), or a 0.5% methyl cellulose solution alone (control group), once a day for 3 days.
as §2, with “on day 1 of administration and 3” for “2”, “administration on day 3.” for “administration.”, “(glucose” for “(glucose measurement”

female ob/ob mice [5] = test: Effect of concomitant use with voglibose on hypoglycemic activity (sucrose loading); type: in vivo; conditions: after sucrose loading 2 g/kg, relative to control
Experimental: as §1, with “9-week-old” for “10-week-old”, “voglibose (0.3” for “glibenclamide (3”, “(voglibose-administered” for “(glibenclamide-administered”, “(voglibose 0.3” for “(glibenclamide 3”, “voglibose” for “glibenclamide”, “group). One hour later, sucrose (2 g/5 mL/kg) was loaded.” for “group).”
as §2, with “loading” for “administration”, “vein 1 and” for “vein”, “sucrose loading.” for “administration.”, “(glucose” for “(glucose measurement”

male db/db mice [6] = test: Effect of concomitant use with tolbutamide on hypoglycemic activity; type: in vivo; conditions: relative to control
Experimental: as §1, with “male db/db” for “female ob/ob”, “4-5 (5” for “4-2 (1”, “tolbutamide (30” for “glibenclamide (3”, “(tolbutamide-administered” for “(glibenclamide-administered”, “(tolbutamide 30” for “(glibenclamide 3”, “tolbutamide” for “glibenclamide”
as §2, with “5” for “2”

[7] = glibenclamide 3 mg/kg oral alone
[8] = metformin chloride 30 mg/kg oral alone, ob/ob mice
[9] = Pioglitazone hydrochloride 3 mg/kg oral once a day alone
[10] = test compound 1 mg/kg + voglibose 0.3 mg/kg oral
[11] = test compound 1 mg/kg oral alone
[12] = test compound 1 mg/kg + metformin chloride 30 mg/kg oral, ob/ob mice
[13] = test compound 1 mg/kg oral alone, ob/ob mice fasted 3 hours before administration
[14] = test compound 1 mg/kg + glibenclamide 3 mg/kg oral
[15] = test compound 10 mg/kg + Pioglitazone hydrochloride 3 mg/kg oral once a day
[16] = test compound 10 mg/kg oral once a day alone
[17] = test compound 5 mg/kg oral alone

Structure (SMILES): CCCC(CCC)c1ccc(CN(C)c2ccc(-c3csc(CN(CC(=O)[O-])Cc4ccccc4)n3)cc2)cc1.[Na+] [Example 3-40]
- blood glucose decreasing rate (%) Day of start of administration (male SD rats; test compound 30 mg/kg oral once a day + insulin 0.6 U/kg s.c. 3 hours later): 43%
- blood glucose decreasing rate (%) Day 8 (male SD rats; test compound 30 mg/kg oral once a day for 8 days + insulin 0.6 U/kg s.c.): 36%

Structure (SMILES): COc1ccc(Cl)cc1C(=O)NCCc1ccc(S(=O)(=O)NC(=O)NC2CCCCC2)cc1 [Glibenclamide, glibenclamide, reference compound]
- blood glucose decreasing rate (%) 3 hours later (female ob/ob mice [1]; [7]): 44%
- blood glucose decreasing rate (%) 15 hours later (female ob/ob mice [1]; [7]): 40%

Structure (SMILES): CC(C)[C@H]1CC[C@H](C(=O)N[C@H](Cc2ccccc2)C(=O)O)CC1 [Nateglinide, nateglinide, reference compound]
- blood glucose decreasing rate (%) 2 hours later (male db/db mice [2]; nateglinide 30 mg/kg oral alone): 5%

Structure (SMILES): CN(C)C(=N)N=C(N)N [Metformin, metformin hydrochloride, reference compound]
- blood glucose decreasing rate (%) 3 hours later (female ob/ob mice [3]; [8]): 17%
- blood glucose decreasing rate (%) 5 hours later (female ob/ob mice [3]; [8]): 39%

Structure (SMILES): CCc1ccc(CCOc2ccc(CC3SC(=O)NC3=O)cc2)nc1 (stereo not drawn) [Pioglitazone, pioglitazone hydrochloride, reference compound]
- blood glucose decreasing rate (%) Day 3 (male db/db mice [4]; [9]): 44%
- blood glucose decreasing rate (%) Day of start of administration (male db/db mice [4]; [9]): 11%

Structure (SMILES): OCC(CO)N[C@H]1C[C@](O)(CO)[C@@H](O)[C@H](O)[C@H]1O [Voglibose, voglibose, reference compound]
- blood glucose decreasing rate (%) 1 hour later (female ob/ob mice [5]; voglibose 0.3 mg/kg oral alone): 35%
- blood glucose decreasing rate (%) 2 hours later (female ob/ob mice [5]; voglibose 0.3 mg/kg oral alone): 38%

Structure (SMILES): CCCC(CCC)c1ccc(OCc2ccc(-c3csc(COc4cncc(C(=O)O)c4)c3)cc2)cc1 [Example 4-2, 5-(4-{4-[4-(1-Propylbutyl)phenoxymethyl]phenyl}thiophen-2-ylmethoxy)nicotinic acid]
- blood glucose decreasing rate (%) 1 hour later (female ob/ob mice [5]; [10]): 49%
- blood glucose decreasing rate (%) 2 hours later (female ob/ob mice [5]; [10]): 54%
- blood glucose decreasing rate (%) 1 hour later (female ob/ob mice [5]; [11]): 32%
- blood glucose decreasing rate (%) 2 hours later (female ob/ob mice [5]; [11]): 40%
- blood glucose decreasing rate (%) 3 hours later (female ob/ob mice [3]; [12]): 40%
- blood glucose decreasing rate (%) 5 hours later (female ob/ob mice [3]; [12]): 51%
- blood glucose decreasing rate (%) 3 hours later (female ob/ob mice [3]; [13]): 19%
- blood glucose decreasing rate (%) 5 hours later (female ob/ob mice [3]; [13]): 20%
- blood glucose decreasing rate (%) 3 hours later (female ob/ob mice [1]; [14]): 64%
- blood glucose decreasing rate (%) 15 hours later (female ob/ob mice [1]; [14]): 60%
- blood glucose decreasing rate (%) 3 hours later (female ob/ob mice [1]; [11]): 48%
- blood glucose decreasing rate (%) 15 hours later (female ob/ob mice [1]; [11]): 20%

Structure (SMILES): CCCC(CCC)c1ccc(OCc2ccc(-c3ccc(COc4cncc(C(=O)O)c4)s3)cc2)cc1 [Example 4-5]
- blood glucose decreasing rate (%) Day 3 (male db/db mice [4]; [15]): 48%
- blood glucose decreasing rate (%) Day of start of administration (male db/db mice [4]; [15]): 30%
- blood glucose decreasing rate (%) Day 3 (male db/db mice [4]; [16]): 32%
- blood glucose decreasing rate (%) Day of start of administration (male db/db mice [4]; [16]): 24%
- melting point: 153 to 155 °C
- blood glucose decreasing rate (%) 2 hours later (male db/db mice [2]; test compound 5 mg/kg + nateglinide 30 mg/kg oral): 19%
- blood glucose decreasing rate (%) 2 hours later (male db/db mice [2]; [17]): 11%
- blood glucose decreasing rate (%) 5 hours later (male db/db mice [6]; test compound 5 mg/kg + tolbutamide 30 mg/kg oral): 30%
- blood glucose decreasing rate (%) 5 hours later (male db/db mice [6]; [17]): 26%

Structure (SMILES): CCCCNC(=O)NS(=O)(=O)c1ccc(C)cc1 [Tolbutamide, tolbutamide, reference compound]
- blood glucose decreasing rate (%) 5 hours later (male db/db mice [6]; tolbutamide 30 mg/kg oral alone): 26%
